The record followed here is patent US20020082280A1, “Method of inhibiting neoplastic cells with benzimidazole derivatives” (priority 1998, published 2002).

Broadly, the melting point is the temperature, or range, at which the solid turns liquid. Consider `Cc1nc2ccc(C(=O)NS(=O)(=O)Cc3ccccc3)cc2n1Cc1ccccc1Cl` [Example 163, 1-(2-Chlorobenzyl)-2-Methyl-6-(α-Toluenesulfonylcarbamoyl)Benzimidazole], for which the melting point fell in the range of 193 to 196 °C. Under `Cc1nc2ccc(C(=O)NS(=O)(=O)C(F)(F)F)cc2n1Cc1ccccc1Cl.Cl` stands 332 to 335 °C (dec.). Under `Cc1ccc(C)c(S(=O)(=O)NC(=O)c2ccc3nc(C)n(Cc4ccccc4Cl)c3c2)c1` [Example 164, 1-(2-Chlorobenzyl)-6-(2,5-Dimethylbenzenesulfonylcarbamoyl)-2-Methylbenzimidazole] stands 266.5 to 267.5 °C; under `Cc1nc2ccc(C(=O)NS(=O)(=O)c3ccc(C(F)(F)F)cc3)cc2n1Cc1ccccc1Cl` [Example 166, 1-(2-Chlorobenzyl)-2-Methyl-6-[4(Trifluoromethyl)Benzenesulfonylcarbamoyl]Benzimidazole], 288 to 292 °C.

The molecule `CCCCS(=O)(=O)NC(=O)c1ccc2nc(C)n(Cc3ccc(C(=O)c4ccccc4)cc3)c2c1` [Example 300, 1-[(4-Benzoyl)benzyl]-6-(1-Butanesulfonylcarbamoyl)-2-Methylbenzimidazole] registered a melting point of 111 to 112.4 °C. With `Cc1nc2ccc(C(=O)NS(=O)(=O)c3cccc(Cl)c3)cc2n1Cc1ccccc1Cl` [Example 156, 6-(3-Chlorobenzenesulfonylcarbamoyl)-1-(2-Chlorobenzyl)-2-Methylbenzimidazole] the figure was 254.5 to 257.5 °C (dec.); with `Cc1nc2ccc(C(=O)NS(=O)(=O)c3ccc([N+](=O)[O-])cc3)cc2n1Cc1ccccc1Cl` [Example 165, 1-(2-Chlorobenzyl)-2-Methyl-6-(4-Nitrobenzenesulfonylcarbamoyl)Benzimidazole], 330 to 332 °C; with `Cc1nc2ccc(C=CC(=O)NS(=O)(=O)c3ccccc3)cc2n1Cc1ccccc1Cl` [Example 126, N-Benzenesulfonyl-3-[1-(2-Chlorobenzyl)-2-Methylbenzimidazole-6-yl]Acrylamide], 243.1 to 244.3 °C. Under `Cc1nc2ccc(C(=O)NS(=O)(=O)c3ccccc3)cc2n1Cc1ccccc1Cl` [Example 111, 6-Benzenesulfonylcarbamoyl-1-(2-Chlorobenzyl)-2-Methylbenzimidazole] stands 273.5 to 274.3 °C; under `CCCc1nc2ccc(C(=O)N(C)c3ccccn3)cc2n1Cc1ccccc1Cl` [Example 37, 1-(2-Chlorobenzyl)-6-[N-Methyl-N-(2-Pyridyl)carbamoyl]-2-n-Propylbenzimidazole], 143 to 146 °C; under `Cc1nc2ccc(CCC(=O)NS(=O)(=O)c3ccccc3)cc2n1Cc1ccccc1Cl` [Example 200, N-Benzenesulfonyl-3-[1-(2-chlorobenzyl)-2-methylbenzimidazole-6-yl]propionamide], 229.8 to 233 °C.

Take `Cc1nc2ccc(C(=O)NS(=O)(=O)c3ccccc3Cl)cc2n1Cc1ccccc1Cl.N` [Example 167, 6-(2-Chlorobenzenesulfonylcarbamoyl)-1-(2-Chlorobenzyl)-2-Methylbenzimidazole Ammonium Salt]: the melting point was in the range of 264 to 267 °C. `O=C(Nc1ccccn1)c1ccc2nc(C3CC3)n(Cc3ccccc3Cl)c2c1` [Example 28, 1-(2-Chlorobenzyl)-2-Cyclopropyl-6-(2-Pyridylcarbamoyl)Benzimidazole]: the melting point lay within 206 to 209 °C. Under `COc1ccc(S(=O)(=O)NC(=O)c2ccc3nc(C)n(Cc4ccccc4Cl)c3c2)cc1` [Example 162, 1-(2-Chlorobenzyl)-6-(4-Methoxybenzenesulfonylcarbamoyl)-2-Methylbenzimidazole] stands 271 to 274 °C. With `CCCCc1nc2ccc(C(=O)N(C)Cc3ccccn3)cc2n1Cc1ccccc1F` [Example 40, 2-n-Butyl-1-(2-Fluorobenzyl)-6-[N-Methyl-N-(2-Pyridylmethyl)Carbamoyl]Benzimidazole] the figure was 97 to 100 °C; with `Nc1nc2ccc(C(=O)NS(=O)(=O)c3ccccc3)cc2n1Cc1ccc(-c2ccccc2)cc1` [Example 172, 2-Amino-6-Benzenesulfonylcarbamoyl-1-(Biphenyl-4-ylmethyl)Benzimidazole], 352.5 to 355 °C. Under `O=C(O)c1ccc2nc(C3CC3)n(Cc3ccccc3F)c2c1` [Example 18, 6-Carboxy-2-Cyclopropyl-1-(2-Fluorobenzyl)Benzimidazole] stands 224 to 229 °C.
